According to publication PMC3783409, “Enzymatic Synthesis of RNAs Capped with Nucleotide Analogues Reveals the Molecular Basis for Substrate Selectivity of RNA Capping Enzyme: Impacts on RNA Metabolism” (PLoS ONE, 2013):
Like-named read-outs stand apart in the source and are kept apart here.

Assays:
[1] = biological target: T1, PBCV-1 GTase (Paramecium bursaria Chlorella virus 1, UniProt Q84424); test: Inhibition of the first step of the GTase reaction (E-GMP formation); type: biochemical; set-up: His-tag; made in house; conditions: for Effect on radiolabelled EpG signal: unlabelled nucleotide 2 mM, GTase 10 µM
T1 sequence (Q84424 whole entry): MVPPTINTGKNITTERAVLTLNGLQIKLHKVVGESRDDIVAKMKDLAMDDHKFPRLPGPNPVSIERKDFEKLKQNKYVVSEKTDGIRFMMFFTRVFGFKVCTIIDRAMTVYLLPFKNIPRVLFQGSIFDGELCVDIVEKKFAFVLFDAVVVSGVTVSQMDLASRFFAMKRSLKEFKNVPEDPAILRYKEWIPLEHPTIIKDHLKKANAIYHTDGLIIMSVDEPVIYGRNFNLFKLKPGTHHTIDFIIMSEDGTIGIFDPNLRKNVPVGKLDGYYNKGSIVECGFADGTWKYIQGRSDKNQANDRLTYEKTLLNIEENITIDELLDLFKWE
Protocol: Inhibition of the first step of the GTase reaction was evaluated by carrying out the standard first step GTase reaction in the presence of 0.2 pmol of [α-^32P] GTP and 2 mM of either unlabelled GTP or each unlabelled nucleotide analogue separately. The IC50 of nucleotide analogues was determined by carrying out the standard first step reaction in the presence of 0.2 pmol of [α-^32P] GTP and increasing concentrations of up to 2 mM of each nucleotide analogue. The reactions were stopped by the addition of EDTA to 10 mM and SDS to 1% and analyzed by electrophoresis through a 12.5% polyacrylamide gel containing 0.1% SDS. The radiolabelled proteins were visualized by autoradiography of the gel. Radiolabelled covalent complex formation was quantified by scanning the gel with a PhosphorImager (Amersham Biosciences).

[2] = biological target: T1, PBCV-1 GTase; test: Transfer of nucleotide analogues onto internally labelled 50 nt RNA (Urea-PAGE); conditions: 32P-internally labelled RNA
[3] = biological target: T1, PBCV-1 GTase; test: In vitro RNA capping efficiency (nuclease P1 / alkaline phosphatase digestion, TLC); conditions: for Relative efficiency of RNA capping, 1st and 2nd steps: nucleotide 2 mM, normalized onto the value obtained with GTP
[4] = biological target: T1, PBCV-1 GTase; test: Formation of the covalent enzyme-nucleotide intermediate (SDS-PAGE, Coomassie blue); type: biochemical; set-up: His-tag; made in house; conditions: nucleotide analogue 2 mM, magnesium ions 5 mM
Protocol: The standard first step reaction was carried out in the presence of each nucleotide analogue (2 mM) in the presence or absence of potassium pyrophosphate (1 mM). The reactions were resolved on SDS-PAGE followed by Coomassie blue staining.

[5] = biological target: T2, eIF4E protein (Mus musculus, UniProt P63073); test: Binding of free NTP to purified eIF4E (fluorescence saturation isotherm); set-up: species or system murine; conditions: 2 µM protein, pH 8.0
T2 construct: His-tag; made in house; host or cells: bacteria
T2 sequence (P63073 whole entry): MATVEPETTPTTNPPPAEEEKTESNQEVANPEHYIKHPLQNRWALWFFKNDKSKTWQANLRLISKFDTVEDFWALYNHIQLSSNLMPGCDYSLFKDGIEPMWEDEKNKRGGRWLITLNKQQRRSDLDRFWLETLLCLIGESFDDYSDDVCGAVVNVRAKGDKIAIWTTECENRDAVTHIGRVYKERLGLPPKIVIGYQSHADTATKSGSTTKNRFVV
Protocol: The binding of RNAs harboring modified RNA cap structures to the eIF4E protein was evaluated by fluorescence spectroscopy as described previously [23]. Briefly, excitation was performed at a wavelength of 290 nm fluorescence using a Hitachi F-2500 fluorescence spectrophotometer. Background emission was eliminated by subtracting the signal from the buffer containing the RNA substrate. The extent to which the RNA binds to purified eIF4E protein was determined by monitoring the fluorescence emission of a fixed concentration of proteins with and without the appropriate RNA (2 µM).
(B) Increasing amounts of NTP were added to a 2 µM solution of the purified protein in a binding buffer (50 mM Tris/HCl, pH 8.0, and 50 mM KOAc) and following excitation of tryptophan residues at 290 nm the emission spectrum was scanned from 310 to 440 nm. […] The data was fit to a binding curve.

[6] = read-out: IC50 for E-GMP formation, 1st step, 0.2 pmol [α-32P] GTP, PBCV-1 GTase 10 µM, analogue up to 2 mM, pH 7.5, 1hr at 30°C

Structure (SMILES): Nc1ncnc2c1ncn2[C@@H]1O[C@H](COP(=O)(O)OP(=O)(O)OP(=O)(O)O)[C@@H](O)[C@H]1O [ATP, reference compound]
- IC50 ([1]; 0.2 pmol [α-32P] GTP, PBCV-1 GTase 10 µM, analogue up to 2 mM, pH 7.5, 1hr at 30°C, read-out: IC50 for E-GMP formation, 1st step): > 2000 µM
- Effect on radiolabelled EpG signal [1]: no apparent effect
- Formation of capped RNA (slower migrating species) [2]: no effect

Structure (SMILES): Nc1nc2c(nc(Br)n2[C@@H]2O[C@H](COP(=O)(O)OP(=O)(O)OP(=O)(O)O)[C@@H](O)[C@H]2O)c(=O)[nH]1 [A13, 8-Bromo GTP]
- IC50 [1, 6]: 1500 µM
- Relative efficiency of RNA capping, 1st and 2nd steps [3]: 0.40

Structure (SMILES): Cn1c(N)nc2c(ncn2[C@@H]2O[C@H](COP(=O)(O)OP(=O)(O)OP(=O)(O)O)[C@@H](O)[C@H]2O)c1=O [A1, N1-Me GTP]
- IC50 [1, 6]: 80 µM
- Relative efficiency of RNA capping, 1st and 2nd steps [3]: 1.1
- Covalent intermediate: slower migrating species on SDS-PAGE [4]: appearance of a slower migrating species

Structure (SMILES): Nc1nc(Cl)c2ncn([C@@H]3O[C@H](COP(=O)(O)OP(=O)(O)OP(=O)(O)O)[C@@H](O)[C@H]3O)c2n1 [A5, 2-Amino-6 Cl purine RTP]
- IC50 [1, 6]: 160 µM
- Relative efficiency of RNA capping, 1st and 2nd steps [3]: 0.08
- RNA capping (transfer onto RNA) relative to GTP [3]: 8%

Structure (SMILES): CSc1nc(N)nc2c1ncn2[C@@H]1O[C@H](COP(=O)(O)OP(=O)(O)OP(=O)(O)O)[C@@H](O)[C@H]1O [A8, 6-Me thio GTP]
- IC50 [1, 6]: 430 µM
- Relative efficiency of RNA capping, 1st and 2nd steps [3]: 0.07

Structure (SMILES): Nc1nc2c(ccn2[C@@H]2O[C@H](COP(=O)(O)OP(=O)(O)OP(=O)(O)O)[C@@H](O)[C@H]2O)c(=O)[nH]1 [A16, 7-deaza GTP]
- IC50 [1, 6]: > 2000 µM

Structure (SMILES): Nc1nc2c(ncn2[C@@H]2O[C@H](COP(=O)(O)OP(=O)(O)OP(=O)(O)O)[C@@H](O)[C@H]2O)c(=O)[nH]1 [GTP, reference compound]
- Kd for purified eIF4E [5]: much higher apparent binding constant
- IC50 [1]: 100 µM
- Effect on radiolabelled EpG signal [1]: maximum loss of the radiolabelled EpG signal
- Fraction of capped RNA over the total transcripts ([3]; cap donor 2 mM): 0.35 ±0.05
- Relative efficiency of RNA capping, 1st and 2nd steps [3]: 1.0
- Formation of capped RNA (slower migrating species) [2]: formation of a slower migrating species corresponding to the capped RNA

Structure (SMILES): O=c1[nH]cnc2c1ncn2[C@@H]1O[C@H](COP(=O)(O)OP(=O)(O)OP(=O)(O)O)[C@@H](O)[C@H]1O [A2, ITP]
- IC50 [1, 6]: 340 µM
- Relative efficiency of RNA capping, 1st and 2nd steps [3]: 1.3
- Formation of capped RNA (slower migrating species) [2]: formation of a slower migrating species corresponding to the capped RNA
- Covalent intermediate: slower migrating species on SDS-PAGE [4]: appearance of a slower migrating species

Structure (SMILES): CSc1ncnc2c1ncn2[C@@H]1O[C@H](COP(=O)(O)OP(=O)(O)OP(=O)(O)O)[C@@H](O)[C@H]1O [A10, 6-Me thio ITP]
- IC50 [1, 6]: 1200 µM
- Transferability of covalent intermediate onto RNA ([3]; 5’-α terminally labelled RNA, TLC): clearly not transferable onto RNA

Structure (SMILES): COc1nc(N)nc2c1ncn2[C@@H]1O[C@H](COP(=O)(O)OP(=O)(O)OP(=O)(O)O)[C@@H](O)[C@H]1O [A7, O6-Me GTP]
- IC50 [1, 6]: 150 µM
- Relative efficiency of RNA capping, 1st and 2nd steps [3]: 0.48
- RNA capping (transfer onto RNA) relative to GTP [3]: ~ 50%

Structure (SMILES): O=P(O)(O)OP(=O)(O)OP(=O)(O)OC[C@H]1O[C@@H](n2cnc3c(Cl)ncnc32)[C@H](O)[C@@H]1O [A11, 6-Cl purine RTP]
- IC50 [1, 6]: > 2000 µM

Structure (SMILES): Nc1nc2c(nc(I)n2[C@@H]2O[C@H](COP(=O)(O)OP(=O)(O)OP(=O)(O)O)[C@@H](O)[C@H]2O)c(=O)[nH]1 [A14, 8-Iodo GTP]
- IC50 [1, 6]: 420 µM
- Relative efficiency of RNA capping, 1st and 2nd steps [3]: 1.0

Structure (SMILES): Nc1nc(N)c2ncn([C@@H]3O[C@H](COP(=O)(O)OP(=O)(O)OP(=O)(O)O)[C@@H](O)[C@H]3O)c2n1 [A4, 2-Amino ATP]
- IC50 [1, 6]: > 2000 µM
